Source: publication PMC5218480 (PLoS ONE, 2017)

Tested on: MV-4-11 cells
Experiment: Gene expression microarray analysis (Affymetrix PrimeView) and GSEA
Assay type: cell-based, human
Set-up: RFU PODN (11730768_x_at) / Fold change /veh PODN (11730768_x_at) / RFU LINC00158 (11744669_a_at) / Fold change /veh LINC00158 (11744669_a_at) / RFU DUSP10 (11751237_a_at) / Fold change /veh DUSP10 (11751237_a_at) / RFU ID3 (11757404_x_at) / Fold change /veh ID3 (11757404_x_at) / RFU PLEKHG5 (11737974_s_at) / Fold change /veh PLEKHG5 (11737974_s_at) / RFU LRRC4B (11730491_at) / Fold change /veh LRRC4B (11730491_at) / RFU GIMAP4 (11747438_a_at) / Fold change /veh GIMAP4 (11747438_a_at) / RFU KRT8 (11758183_x_at) / Fold change /veh KRT8 (11758183_x_at) / RFU CNN1 (11734310_a_at) / Fold change /veh CNN1 (11734310_a_at) / RFU VPS37D (11726825_at) / Fold change /veh VPS37D (11726825_at) / RFU C10orf10 (11716522_x_at) / Fold change /veh C10orf10 (11716522_x_at) / RFU KIR2DL2 /// KIR2DL4 /// KIR2DL5A /// KIR2DL5B /// KIR2DS1 /// KIR2DS2 /// KIR2DS3 /// KIR2DS4 /// KIR3DL3 /// KIR3DL3 /// KIR3DS1 (11738374_at) / Fold change /veh KIR2DL2 /// KIR2DL4 /// KIR2DL5A /// KIR2DL5B /// KIR2DS1 /// KIR2DS2 /// KIR2DS3 /// KIR2DS4 /// KIR3DL3 /// KIR3DL3 /// KIR3DS1 (11738374_at) / RFU C1QL1 (11718748_at) / Fold change /veh C1QL1 (11718748_at) / RFU TMPRSS4 (11747572_a_at) / Fold change /veh TMPRSS4 (11747572_a_at) / RFU HAMP (11756126_x_at) / Fold change /veh HAMP (11756126_x_at) / RFU RNFT2 (11725882_a_at) / Fold change /veh RNFT2 (11725882_a_at) / RFU NR4A2 (11747474_a_at) / Fold change /veh NR4A2 (11747474_a_at) / RFU ABCC12 (11746883_a_at) / Fold change /veh ABCC12 (11746883_a_at) / RFU TMEM136 (11760407_x_at) / Fold change /veh TMEM136 (11760407_x_at) / RFU CLDN22 /// WWC2 (11732394_at) / Fold change /veh CLDN22 /// WWC2 (11732394_at) / RFU HLA-DPB1 (11760878_x_at) / Fold change /veh HLA-DPB1 (11760878_x_at) / RFU SPINT1 (11716480_a_at) / Fold change /veh SPINT1 (11716480_a_at) / RFU GAP43 (11754022_s_at) / Fold change /veh GAP43 (11754022_s_at) / RFU A4GNT (11735810_at) / Fold change /veh A4GNT (11735810_at) / RFU PRB3 (11715151_x_at) / Fold change /veh PRB3 (11715151_x_at) / RFU TUBB4B (11761932_at) / Fold change /veh TUBB4B (11761932_at) / RFU CAPN14 (11732068_a_at) / Fold change /veh CAPN14 (11732068_a_at) / RFU TMCC2 (11721928_a_at) / Fold change /veh TMCC2 (11721928_a_at) / RFU IRGQ (11745062_a_at) / Fold change /veh IRGQ (11745062_a_at) / RFU FAM174B (11720279_a_at) / Fold change /veh FAM174B (11720279_a_at) / RFU TMPRSS4 (11748680_a_at) / Fold change /veh TMPRSS4 (11748680_a_at) / RFU FAM212B (11763350_a_at) / Fold change /veh FAM212B (11763350_a_at) / RFU PLEKHG5 (11743358_a_at) / Fold change /veh PLEKHG5 (11743358_a_at) / RFU ZSCAN30 (11745921_a_at) / Fold change /veh ZSCAN30 (11745921_a_at) / RFU CMKLR1 (11741424_a_at) / Fold change /veh CMKLR1 (11741424_a_at) / RFU LOC101060620 /// MAPK8IP1 (11723275_at) / Fold change /veh LOC101060620 /// MAPK8IP1 (11723275_at) / RFU SPTSSB (11747773_x_at) / Fold change /veh SPTSSB (11747773_x_at) / RFU PRSS12 (11739890_at) / Fold change /veh PRSS12 (11739890_at) / RFU BIN1 (11741810_x_at) / Fold change /veh BIN1 (11741810_x_at) / RFU WNT11 (11732464_a_at) / Fold change /veh WNT11 (11732464_a_at) / RFU C10orf10 (11716521_a_at) / Fold change /veh C10orf10 (11716521_a_at) / RFU C5orf56 (11738089_at) / Fold change /veh C5orf56 (11738089_at) / RFU CYB561 (11721691_x_at) / Fold change /veh CYB561 (11721691_x_at) / RFU ANKRD19P (11752326_a_at) / Fold change /veh ANKRD19P (11752326_a_at) / RFU OR2T12 /// OR2T33 /// OR2T8 (11738714_s_at) / Fold change /veh OR2T12 /// OR2T33 /// OR2T8 (11738714_s_at) / RFU VCAN (11748164_a_at) / Fold change /veh VCAN (11748164_a_at) / RFU JSRP1 (11732532_at) / Fold change /veh JSRP1 (11732532_at) / RFU KRTAP10-11 (11738290_x_at) / Fold change /veh KRTAP10-11 (11738290_x_at) / RFU MYO3A (11730013_a_at) / Fold change /veh MYO3A (11730013_a_at) / RFU EBF3 (11725865_a_at) / Fold change /veh EBF3 (11725865_a_at) / RFU CAMK2N1 (11719241_x_at) / Fold change /veh CAMK2N1 (11719241_x_at) / RFU C5orf56 (11738088_a_at) / Fold change /veh C5orf56 (11738088_a_at) / RFU OLFML3 (11715873_a_at) / Fold change /veh OLFML3 (11715873_a_at) / RFU LOC100653217 /// NTM (11731650_a_at) / Fold change /veh LOC100653217 /// NTM (11731650_a_at) / RFU MAPK11 (11762145_a_at) / Fold change /veh MAPK11 (11762145_a_at) / RFU FIZ1 (11724087_x_at) / Fold change /veh FIZ1 (11724087_x_at) / RFU OASL (11726364_x_at) / Fold change /veh OASL (11726364_x_at) / RFU SOX15 (11748057_x_at) / Fold change /veh SOX15 (11748057_x_at) / RFU CD79A (11719716_a_at) / Fold change /veh CD79A (11719716_a_at) / RFU HIST1H1D (11736915_at) / Fold change /veh HIST1H1D (11736915_at) / RFU CASKIN2 (11723855_a_at) / Fold change /veh CASKIN2 (11723855_a_at) / RFU LOC730098 (11760151_x_at) / Fold change /veh LOC730098 (11760151_x_at) / RFU OR4N2 (11742367_at) / Fold change /veh OR4N2 (11742367_at) / RFU PRRT2 (11749266_a_at) / Fold change /veh PRRT2 (11749266_a_at) / RFU SNX32 (11753110_a_at) / Fold change /veh SNX32 (11753110_a_at) / RFU CDHR5 (11726645_a_at) / Fold change /veh CDHR5 (11726645_a_at) / RFU RCAN1 (11760418_a_at) / Fold change /veh RCAN1 (11760418_a_at) / RFU FAM167A (11723789_a_at) / Fold change /veh FAM167A (11723789_a_at) / RFU FAM26E (11764081_at) / Fold change /veh FAM26E (11764081_at) / RFU ISYNA1 (11749810_s_at) / Fold change /veh ISYNA1 (11749810_s_at) / RFU ACY1 (11761880_at) / Fold change /veh ACY1 (11761880_at) / RFU 11764098_at / Fold change /veh 11764098_at / RFU SAMD14 (11745864_x_at) / Fold change /veh SAMD14 (11745864_x_at) / RFU NPB (11741838_a_at) / Fold change /veh NPB (11741838_a_at) / RFU TMPRSS6 (11731388_a_at) / Fold change /veh TMPRSS6 (11731388_a_at) / RFU KRTAP10-2 (11738614_at) / Fold change /veh KRTAP10-2 (11738614_at) / RFU ARHGAP8 /// PRR5-ARHGAP8 (11727945_x_at) / Fold change /veh ARHGAP8 /// PRR5-ARHGAP8 (11727945_x_at) / RFU KRTAP5-7 /// NADSYN1 (11734609_at) / Fold change /veh KRTAP5-7 /// NADSYN1 (11734609_at) / RFU RASL12 (11751679_a_at) / Fold change /veh RASL12 (11751679_a_at) / RFU CDKN2B (11736163_a_at) / Fold change /veh CDKN2B (11736163_a_at) / RFU PRF1 (11729649_at) / Fold change /veh PRF1 (11729649_at) / RFU, ZNF638 /// ZNF638-IT1 / Fold change vs veh, ZNF638 /// ZNF638-IT1 / RFU, PANK3 / Fold change vs veh, PANK3 / RFU, SH3YL1 / Fold change vs veh, SH3YL1 / RFU, ZEB2 / Fold change vs veh, ZEB2 / RFU, NRIP1 / Fold change vs veh, NRIP1 / RFU, PTTG1IP / Fold change vs veh, PTTG1IP / RFU, CAPN2 / Fold change vs veh, CAPN2 / RFU, MED14 / Fold change vs veh, MED14 / RFU, SNORA58 / Fold change vs veh, SNORA58 / RFU, C1orf63 / Fold change vs veh, C1orf63 / RFU, LRRFIP1 / Fold change vs veh, LRRFIP1 / RFU, NDUFAF7 / Fold change vs veh, NDUFAF7 / RFU, SLC12A2 / Fold change vs veh, SLC12A2 / RFU, IBTK / Fold change vs veh, IBTK / RFU, ESF1 / Fold change vs veh, ESF1 / Fold change vs veh, TMEM50B / RFU, TAOK1 / Fold change vs veh, TAOK1 / RFU, ACBD3 / Fold change vs veh, ACBD3 / RFU, TMA16 / Fold change vs veh, TMA16 / RFU, RWDD3 / Fold change vs veh, RWDD3 / RFU, BCAT1 / Fold change vs veh, BCAT1 / RFU, EDEM3 / Fold change vs veh, EDEM3 / RFU, TMEM33 / Fold change vs veh, TMEM33 / RFU, WDR75 / Fold change vs veh, WDR75 / RFU, AHCTF1 / Fold change vs veh, AHCTF1 / RFU, TFRC / Fold change vs veh, TFRC / RFU, ZDHHC17 / Fold change vs veh, ZDHHC17 / RFU, NOM1 / Fold change vs veh, NOM1 / RFU, ARL8B / Fold change vs veh, ARL8B / RFU, ZBTB11 / Fold change vs veh, ZBTB11 / RFU, TAMM41 / Fold change vs veh, TAMM41 / RFU, KIAA1704 /// LOC100996395 / Fold change vs veh, KIAA1704 /// LOC100996395 / RFU, ING1 / Fold change vs veh, ING1 / RFU, TRMT61B / Fold change vs veh, TRMT61B / RFU, FUBP3 / Fold change vs veh, FUBP3 / RFU, TP53 / Fold change vs veh, TP53 / RFU, TNKS2 / Fold change vs veh, TNKS2 / RFU, ZFP14 / Fold change vs veh, ZFP14 / RFU, ACTR2 / Fold change vs veh, ACTR2 / RFU, PPP3R1 / Fold change vs veh, PPP3R1 / RFU, PIK3R1 / Fold change vs veh, PIK3R1 / RFU, HNRNPA1 / Fold change vs veh, HNRNPA1 / RFU, RNF170 / Fold change vs veh, RNF170 / RFU, ZNF28 / Fold change vs veh, ZNF28 / RFU, RNGTT / Fold change vs veh, RNGTT / RFU, OGT / Fold change vs veh, OGT / RFU, BRD1 / Fold change vs veh, BRD1 / RFU, MARS / Fold change vs veh, MARS / RFU, ZNF655 / Fold change vs veh, ZNF655 / RFU, FAHD1 / Fold change vs veh, FAHD1 / RFU, BDP1 / Fold change vs veh, BDP1 / RFU, LRRCC1 / Fold change vs veh, LRRCC1 / RFU, ARID1A / Fold change vs veh, ARID1A / RFU, ZNF146 / Fold change vs veh, ZNF146 / RFU, ZNF330 / Fold change vs veh, ZNF330 / RFU, GPN3 / Fold change vs veh, GPN3 / RFU, C9orf123 / Fold change vs veh, C9orf123 / RFU, N4BP2L2 / Fold change vs veh, N4BP2L2 / RFU, ARFIP1 / Fold change vs veh, ARFIP1 / RFU, FAM179B / Fold change vs veh, FAM179B / RFU, BCL10 / Fold change vs veh, BCL10 / RFU, UHRF1BP1L / Fold change vs veh, UHRF1BP1L / RFU, BET1 / Fold change vs veh, BET1 / RFU, CNOT2 / Fold change vs veh, CNOT2 / RFU, ZNF268 / Fold change vs veh, ZNF268 / Fold change vs veh, ZNF507 / RFU, DGCR2 / Fold change vs veh, DGCR2 / RFU, WDSUB1 / Fold change vs veh, WDSUB1 / Fold change vs veh, HSP90B1 /// MIR3652 / RFU, ADSS / Fold change vs veh, ADSS / RFU, GK / Fold change vs veh, GK / RFU, ZNF148 / Fold change vs veh, ZNF148 / RFU, TAF9 / Fold change vs veh, TAF9 / RFU, SLC1A5 / Fold change vs veh, SLC1A5 / RFU, SLMO2 / Fold change vs veh, SLMO2 / RFU, ABCC4 / Fold change vs veh, ABCC4 / RFU, LOC101060439 /// RAP1B / Fold change vs veh, LOC101060439 /// RAP1B / RFU, RFX7 / Fold change vs veh, RFX7 / RFU, GTPBP10 / Fold change vs veh, GTPBP10 / RFU, CNEP1R1 / Fold change vs veh, CNEP1R1 / RFU, BIVM-ERCC5 /// ERCC5 / Fold change vs veh, BIVM-ERCC5 /// ERCC5 / RFU, ILF3 / Fold change vs veh, ILF3 / RFU 11762660_at / Fold change /veh 11762660_at / RFU VCAN (11757783_s_at) / Fold change /veh VCAN (11757783_s_at) / RFU DDX43 (11728927_at) / Fold change /veh DDX43 (11728927_at) / RFU KRT8 (11758188_x_at) / Fold change /veh KRT8 (11758188_x_at) / RFU NKD1 (11759106_at) / Fold change /veh NKD1 (11759106_at) / RFU SRD5A1 (11742802_a_at) / Fold change /veh SRD5A1 (11742802_a_at) / RFU TPSAB1 /// TPSB2 (11721975_s_at) / Fold change /veh TPSAB1 /// TPSB2 (11721975_s_at) / RFU GSTM3 (11746129_a_at) / Fold change /veh GSTM3 (11746129_a_at) / RFU IL23R (11737362_x_at) / Fold change /veh IL23R (11737362_x_at) / RFU TMEM51 (11727254_a_at) / Fold change /veh TMEM51 (11727254_a_at) / RFU PIWIL2 (11732686_x_at) / Fold change /veh PIWIL2 (11732686_x_at) / RFU ORM1 (11744905_x_at) / Fold change /veh ORM1 (11744905_x_at) / RFU CCDC152 (11743942_at) / Fold change /veh CCDC152 (11743942_at) / RFU ECM1 (11717891_a_at) / Fold change /veh ECM1 (11717891_a_at) / RFU IL23R (11748794_a_at) / Fold change /veh IL23R (11748794_a_at) / RFU TNFAIP8L3 (11732012_x_at) / Fold change /veh TNFAIP8L3 (11732012_x_at) / RFU MBOAT4 (11741988_at) / Fold change /veh MBOAT4 (11741988_at) / RFU 11764193_at / Fold change /veh 11764193_at / RFU TMEM53 (11763286_at) / Fold change /veh TMEM53 (11763286_at) / RFU MAGEB2 (11727129_at) / Fold change /veh MAGEB2 (11727129_at) / RFU TMEM200A (11744735_a_at) / Fold change /veh TMEM200A (11744735_a_at) / RFU CCDC152 (11751479_a_at) / Fold change /veh CCDC152 (11751479_a_at) / RFU FAM211A (11726209_a_at) / Fold change /veh FAM211A (11726209_a_at) / RFU RGS16 (11746705_a_at) / Fold change /veh RGS16 (11746705_a_at) / RFU VCAN (11755009_s_at) / Fold change /veh VCAN (11755009_s_at) / RFU RHOB (11743442_s_at) / Fold change /veh RHOB (11743442_s_at) / RFU RGS16 (11720943_a_at) / Fold change /veh RGS16 (11720943_a_at) / RFU RGS16 (11720944_at) / Fold change /veh RGS16 (11720944_at) / RFU, VPS4B / Fold change vs veh, VPS4B / RFU, CREB1 / Fold change vs veh, CREB1 / RFU, DNAJC13 / Fold change vs veh, DNAJC13 / RFU, GNAQ / Fold change vs veh, GNAQ / RFU, CDK5R1 / Fold change vs veh, CDK5R1 / RFU, ZRANB3 / Fold change vs veh, ZRANB3 / RFU, CUL4A / Fold change vs veh, CUL4A / RFU, CCNY / Fold change vs veh, CCNY / RFU, UFL1 / Fold change vs veh, UFL1 / RFU, COG3 / Fold change vs veh, COG3 / RFU, DIAPH2 / Fold change vs veh, DIAPH2 / RFU, SKA2 / Fold change vs veh, SKA2 / RFU, AFF3 / Fold change vs veh, AFF3 / RFU, LMF1 / Fold change vs veh, LMF1 / RFU, IPO11 / Fold change vs veh, IPO11 / RFU, DFFB / Fold change vs veh, DFFB / RFU, FOXP1 / Fold change vs veh, FOXP1 / RFU, CARD8 / Fold change vs veh, CARD8 / RFU, STRN3 / Fold change vs veh, STRN3 / RFU, ADK / Fold change vs veh, ADK / RFU, RASSF2 / Fold change vs veh, RASSF2 / RFU, WIPF1 / Fold change vs veh, WIPF1 / RFU, LARP1B / Fold change vs veh, LARP1B / RFU, RASA1 / Fold change vs veh, RASA1 / RFU, RB1 / Fold change vs veh, RB1 / RFU, PPFIA1 / Fold change vs veh, PPFIA1 / RFU, MAT2A / Fold change vs veh, MAT2A / RFU, CCT5 / Fold change vs veh, CCT5 / RFU, WDR92 / Fold change vs veh, WDR92 / RFU, CUX1 / Fold change vs veh, CUX1 / RFU, TTC7A / Fold change vs veh, TTC7A / RFU, TMEM135 / Fold change vs veh, TMEM135 / RFU, DEPTOR / Fold change vs veh, DEPTOR / RFU, CPM / Fold change vs veh, CPM / RFU, DNAJB6 / Fold change vs veh, DNAJB6 / RFU, CACNA2D3 / Fold change vs veh, CACNA2D3 / RFU, DTX4 / Fold change vs veh, DTX4 / RFU, TFCP2 / Fold change vs veh, TFCP2 / RFU, GMCL1 /// GMCL1P1 / Fold change vs veh, GMCL1 /// GMCL1P1 / RFU, AEBP2 / Fold change vs veh, AEBP2 / RFU, SNHG1 /// SNORD22 /// SNORD25 /// SNORD26 /// SNORD27 /// SNORD28 /// SNORD29 /// SNORD31 / Fold change vs veh, SNHG1 /// SNORD22 /// SNORD25 /// SNORD26 /// SNORD27 /// SNORD28 /// SNORD29 /// SNORD31 / Fold change (Aza/veh), C12orf56 (ProbeSet 11735607_a_at) / Fold change (ACY-1035/veh), C12orf56 (ProbeSet 11735607_a_at) / Fold change (Aza/veh), FGFR1OP (ProbeSet 11751329_s_at) / Fold change (ACY-1035/veh), FGFR1OP (ProbeSet 11751329_s_at) / Fold change (Aza/veh), VPS36 (ProbeSet 11739960_a_at) / Fold change (ACY-1035/veh), VPS36 (ProbeSet 11739960_a_at) / RFU SYPL1 (11715823_x_at) / Fold change /veh SYPL1 (11715823_x_at) / RFU IGFBP7 (11715501_s_at) / Fold change /veh IGFBP7 (11715501_s_at) / RFU REEP3 (11722064_at) / Fold change /veh REEP3 (11722064_at) / RFU IGLL1 (11728026_x_at) / Fold change /veh IGLL1 (11728026_x_at): dose or concentration left out as unconfirmed
Details: ProbeSet 11727827_x_at; LIST B

Nc1ccc(-c2cccs2)cc1NC(=O)c1ccc2c(c1)cc(C1CC1)n2CCN1CCOCC1 [ACY-1035]
RFU, NDUFAF7: 59.45 RFU
